Data: patent publication US20250114374A1, “BCL-2 INHIBITORS” (Newave Pharmaceutical Inc., priority 2021, published 2025)
pIC50: −log10 of the molar value. Read-outs that look alike come from different tables or passages of the source.

System: RS4; 11 with G101V mutation
Test: In vitro anti-proliferation assay (ATPlite luminescence) in BCL-2-dependent ALL cell line RS4;11 with G101V mutation
Assay type: cell-based
Details: read-out: RS411-G101V IC50
How it was run: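 RS4;11 G101V cells at about 1×10^4 per well were exposed to a range of compound concentrations for about 72 h in medium with 10% FBS. Cellular ATP was measured by ATPlite luminescence after lysis, and IC50 was derived from the dose-response.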

[1] = cellular anti-proliferative IC50, about 72 hours, medium with 10% FBS, ATPlite

SMILES	pIC50 [1]	pIC50 (Homo sapiens, RS4-11, 72 h)
CC(C)Oc1ccccc1[C@@H]1CN(c2ccccc2)CCN1C1CC2(CCN(c3ccc(C(=O)NS(=O)(=O)c4cc5c(c([N+](=O)[O-])c4)N[C@H](C4CCOCC4)CO5)c(N4c5cc6cc[nH]c6nc5O[C@H]5COCC[C@@H]54)c3)CC2)C1 [Example 222, 2-[(3R,8S)-2,5-dioxa-9,15,17-triazatetracyclo[8.7.0.0^{3,8}.0^{12,16}]heptadeca-1(10),11,13,16-tetraen-9-yl]-4-{2-[(2R)-2-(2-isopropoxyphenyl)-4-phenylpiperazin-1-yl]-7-azaspiro[3.5]nonan-7-yl}-N-[(3R)-5-nitro-3-(oxan-4-yl)-3,4-dihydro-2H-1,4-benzoxazin-7-ylsulfonyl]benzamide]	6.62	–
CC(C)Oc1ccccc1[C@@H]1CN(c2ccncc2)CCN1C1CC2(CCN(c3ccc(C(=O)NS(=O)(=O)c4cc5c(c([N+](=O)[O-])c4)N[C@H](C4CCOCC4)CO5)c(N4c5cc6cc[nH]c6nc5O[C@H]5COCC[C@@H]54)c3)CC2)C1 [Example 223, 4-(2-((R)-2-(2-isopropoxyphenyl)-4-(pyridin-4-yl)piperazin-1-yl)-7-azaspiro[3.5]nonan-7-yl)-N-(((R)-5-nitro-3-(tetrahydro-2H-pyran-4-yl)-3,4-dihydro-2H-benzo[b][1,4]oxazin-7-yl)sulfonyl)-2-((5aS,9aR)-6,7,9,9a-tetrahydro-1H-pyrano[3,4-b]pyrrolo[3′,2′:5,6]pyrido[3,2-e][1,4]oxazin-5(5aH)-yl)benzamide]	–	6.65
CC(C)Oc1ccccc1[C@@H]1CN(c2cccnc2)CCN1C1CC2(CCN(c3ccc(C(=O)NS(=O)(=O)c4cc5c(c([N+](=O)[O-])c4)N[C@H](C4CCOCC4)CO5)c(N4c5cc6cc[nH]c6nc5O[C@H]5COCC[C@@H]54)c3)CC2)C1 [Example 224, 2-[(3R,8S)-2,5-dioxa-9,15,17-triazatetracyclo[8.7.0.0^{3,8}.0^{12,16}]heptadeca-1(10),11,13,16-tetraen-9-yl]-4-{2-[(2R)-2-(2-isopropoxyphenyl)-4-(pyridin-3-yl)piperazin-1-yl]-7-azaspiro[3.5]nonan-7-yl}-N-[(3R)-5-nitro-3-(oxan-4-yl)-3,4-dihydro-2H-1,4-benzoxazin-7-ylsulfonyl]benzamide]	6.87	–
CC(C)Oc1ccccc1[C@@H]1CN(c2ccccn2)CCN1C1CC2(CCN(c3ccc(C(=O)NS(=O)(=O)c4cc5c(c([N+](=O)[O-])c4)N[C@H](C4CCOCC4)CO5)c(N4c5cc6cc[nH]c6nc5O[C@H]5COCC[C@@H]54)c3)CC2)C1 [Example 225, 2-[(3R,8S)-2,5-dioxa-9,15,17-triazatetracyclo[8.7.0.0^{3,8}.0^{12,16}]heptadeca-1(10),11,13,16-tetraen-9-yl]-4-{2-[(2R)-2-(2-isopropoxyphenyl)-4-(pyridin-2-yl)piperazin-1-yl]-7-azaspiro[3.5]nonan-7-yl}-N-[(3R)-5-nitro-3-(oxan-4-yl)-3,4-dihydro-2H-1,4-benzoxazin-7-ylsulfonyl]benzamide]	6.75	–
CC(C)Oc1ccccc1[C@@H]1CN(C2CCC(C)(C)CC2)CCN1C1CC2(CCN(c3ccc(C(=O)NS(=O)(=O)c4cc5c(c([N+](=O)[O-])c4)N[C@H](C4CCOCC4)CO5)c(N4c5cc6cc[nH]c6nc5O[C@H]5COCC[C@@H]54)c3)CC2)C1 (stereo partly drawn) [Example 226, 4-{2-[(2R)-4-(4,4-dimethylcyclohexyl)-2-(2-isopropoxyphenyl)piperazin-1-yl]-7-azaspiro[3.5]nonan-7-yl}-2-[(3R,8S)-2,5-dioxa-9,15,17-triazatetracyclo[8.7.0.0^{3,8}.0^{12,16}]heptadeca-1(10),11,13,16-tetraen-9-yl]-N-[(3R)-5-nitro-3-(oxan-4-yl)-3,4-dihydro-2H-1,4-benzoxazin-7-ylsulfonyl]benzamide]	7.20	–
